Consider 1 substance from patent publication US11389505B2, “Method of managing joint pain” (ORTHOTROPHIX, INC., priority 2017, dated 2022).

The test system of this data set is subjects with osteoarthritis of the knees. Kind of data set: Clinical study of TPX-100, safety and tolerability of intra-articular administration. The format is in vivo, human.

Ends that are not written are not given here.

Turning to TDLQERGDNDISPFSGDGQPFKD-NH2 [TPX-100], the Dose-limiting toxicities entry (Part A, 20, 50, 100 and 200 mg per intra-articular injection, 4 weekly injections) is “no dose-limiting toxicities”. In addition, where the note is “throughout the study period”, the “Severe adverse events related to the drug treatment” value is listed as “no severe adverse events likely or possibly related to the drug treatment” and the “Severity of treatment-related adverse events” value is on record as “mild or moderate, transient”. For the same substance, under “throughout the study period (12 months)”, the “Safety and tolerability of treatments” value was “safe and well tolerated”.
